Assays:
Format in all cases: physicochemical
[1] = Surface tension, Wilhelmy plate method (DataPhysics DCAT 9 tensionmeter); settings: 0.03% w/w HT61 in demineralised water, assumed saturated; measured three times
Method: (§1) To support the use of a low concentration of HT61 acting as an emollient in an aqueous disinfectant composition, the surface tension, contact angle and hydrophilic lipophilic balance (HLB) of this compound were determined. • Sample Preparation: A 0.03% w/w solution was required for both the contact angle and surface tension measurements. This solution was prepared by adding 0.075 g of the HT61 solid (obtained according to the method set out in WO 2007/054693 A1 discussed above) to 250 ml of demineralised water. Some solid remained in solution so analysis was carried out using UV-Vis Spectroscopy. […] The surface tension of the sample was measured using a DataPhysics DCAT 9 tensionmeter and the Wilhelmy plate method. The measurement was made three times, with the plate being cleaned between each measurement. • The contact angle was measured on the surface of parafilm. A sample of parafilm was wrapped around a glass slide and the protective film removed. The contact angle of the liquid with the parafilm was measured by placing a small (e.g. 2 μl) drop of test liquid (the sample) on the test surface. The profile of the drop was measured as a function of time using a DataPhysics OCA 35. Each liquid was measured three times. The contact angles were determined 2 s, 12 s and 30 s after the drop first touched the surface. […]

[2] = Contact angle of a drop on the surface of parafilm (DataPhysics OCA 35); settings: 0.03% w/w solution
Method: To support the use of a low concentration of HT61 acting as an emollient in an aqueous disinfectant composition, the surface tension, contact angle and hydrophilic lipophilic balance (HLB) of this compound were determined. • Sample Preparation: A 0.03% w/w solution was required for both the contact angle and surface tension measurements. This solution was prepared by adding 0.075 g of the HT61 solid (obtained according to the method set out in WO 2007/054693 A1 discussed above) to 250 ml of demineralised water. Some solid remained in solution so analysis was carried out using UV-Vis Spectroscopy. […] The surface tension of the sample was measured using a DataPhysics DCAT 9 tensionmeter and the Wilhelmy plate method. The measurement was made three times, with the plate being cleaned between each measurement. • The contact angle was measured on the surface of parafilm. A sample of parafilm was wrapped around a glass slide and the protective film removed. The contact angle of the liquid with the parafilm was measured by placing a small (e.g. 2 μl) drop of test liquid (the sample) on the test surface. The profile of the drop was measured as a function of time using a DataPhysics OCA 35. Each liquid was measured three times. The contact angles were determined 2 s, 12 s and 30 s after the drop first touched the surface. For reference, the contact angle of demineralised water was also measured. • The HLB Value was obtained using […] mathematical method (Griffin, W.C., Calculation of HLB Values of Non-Ionic Surfactants, Journal of the Society of Cosmetic Chemists, 1954, 5(4), 249-56): • [formula] • where Mh is the molecular weight of hydrophilic groups (44 gmol^-1) and M is the molecular weight of the whole molecule (380 gmol^-1). • The factor 20 is a scaling factor. Thus a scale of 1 to 20 is generally obtained.

[3] = Preparation of 0.03% w/w HT61 solution in demineralised water, UV-Vis check; settings: 0.075 g HT61 solid added to 250 ml demineralised water (0.03% w/w)
Method: as §1

Cc1nc2ccc(Oc3ccccc3)cc2c2c1CCN2CCc1ccccc1 [HT61, 4-methyl-8-phenoxy-1-(2-phenylethyl)-2,3-dihydro-1H-pyrrolo[3,2-c]quinoline]
Average Surface Tension [1]: 55.7 mN/m
Average Contact Angle @2s ([2]; 2 s after drop touched surface): 98
Average Contact Angle @12s ([2]; 12 s after drop touched surface): 96
Average Contact Angle @30s ([2]; 30 s after drop touched surface): 96
Dissolution of HT61 solid in demineralised water [3]: the solution was saturated

Reference: patent publication US20230337671A1, “DISINFECTANT COMPOSITION” (Helperby Therapeutics Limited, priority 2020, published 2023)
